Measurements reported in US20240366577A1, “CONTROLLED LONG-TERM DRUG DELIVERY AND METHODS THEREOF” (THE JOHNS HOPKINS UNIVERSITY, priority 2021, published 2024).

Key:
[1] = crystal stability in aqueous solutions (brightfield microscopy); type: physicochemical; settings: 1-2 mg crystal, 300 μL saline, RPMI-1640 media, 1X PBS or saline with 0.1% SDS; solutions replaced every hour; after 36 hours
Source text: After crystals visibly stopped precipitating or growing, the vessel was submerged in an ultrasonic water bath for 10-30 seconds to dislodge crystals from the vessel sidewall and break them into more a uniform size distributions, either smaller fines, for example 50 μm, or between 150-200 μm, as measured by brightfield and scanning electron microscopy, shown in FIGS. 2A-2B. Resultant product was then removed from the supernatant mother solution, dried, weighed, and stored for later use. On average, yielded crystal was approximately 40% of the starting powder. Furthermore, methods exist to quantify solubilized material, typically using optics to identify changes in light transmittance, and enabled testing of crystal stability in a range of aqueous solutions. To do so, between 1-2 mg of crystal was placed in a 96-well plate with 300 μL of DMSO, saline, RPMI-1640 media, 1X phosphate buffer solution (PBS), or saline with 0.1% sodium dodecyl sulfate (SDS). […] To simulate cumulative drug release over time, all 3 mL supernatant volumes were removed and replaced with completely fresh release media at desired times of 1 hr, 4 hr, 6 hr, 8 hr, 10 hr, 1 day, 2 days, 5 days, 7 days, 10 days and 12 days, and 200 μL aliquots were measured in individual wells of a 96-well plate at 266 nm to determine solubilize sorafenib release, as shown in FIG. 2D.

[2] = tested on: 4T1-luciferase tumors; test: 4T1-luciferase tumor IVIS bioluminescence, co-injection with crystals; type: in vivo, BALB/c mice; settings: 2 mg of 150-200 μm crystals co-injected with 4T1-luciferase cells; up to 20 days; vs PBS controls; p<0.05
Protocol: To determine long-term potential of tunable, slow-releasing crystal-formulated sorafenib, efficacy of a single injection of the injectable drug composition was measured in a syngeneic model of triple negative breast cancer (TNBC): 4T1 tumors grown orthotopically in the mammary fat pad of BALB/c mice. For in vivo testing, mice were anesthetized with inhaled isofluorane and inoculated with 4T1, also referred to as 4T1-Luciferase, Luc, cancer cells, injected into the right inguinal mammary fat pad, as shown in FIG. 3A. […] Tumor presence was quantified over time up to 20 days post injection in both cases based on measured luminescence in equivalent regions of interest (ROIs, white circles), depicted in FIG. 3C. […]
4T1 or 4T1-luc2 cells were trypsinized using 0.25% Trypsin-EDTA, then diluted with the appropriate complete culture media and spun in a centrifuge at 300 g for 5 min. […] Cells were counted with a Countess automated cell counter. […] Tumors were measured externally using a digital caliper, and volume was calculated (!″* (length * height) *−length * height). […]
4T1-Luc2 tumor-injected mice were dosed with RediJect D-Luciferin K+ salt 5 minutes prior to examination. […] Equivalent regions of interest (ROIs) were used for quantification of tumor groups.

[3] = tested on: macrophage Cd68 and myeloid Cd11b; test: qPCR of retrieved tumors: immune markers; type: in vivo, BALB/c mice; settings: crystal treatment groups
[4] = crystals collected from vitreous fluid after intravitreal injection; type: in vivo, mouse; settings: collected 2 weeks after injection; compared to larger crystalline sorafenib
[5] = tested on: alpha Smooth Muscle actin (aSMact); test: immunofluorescent staining of tumors: aSMact; type: in vivo, BALB/c mice; settings: single SC injection of 3 mg or 10 mg crystals, compared to daily bolus
Protocol: To confirm the effects seen at the level of RNA, immunofluorescent staining of excised tumor samples that were in parallel fixed with paraformaldehyde and embedded in paraffin was performed. […] Co-localization of CD31 with aSMact was, as expected, not linked in crystal sorafenib-treated tumors, where CD31 reduction was more extensive than with daily, bolus sorafenib.
Immunofluorescence imaging was used to determine anti-angiogenic drug efficacy. Tumor tissues were retrieved from mice and fixed overnight using 4% paraformaldehyde at 4° C. After fixation, retrieved tissue samples were moved to 70% ethanol. Samples were then processed for paraffin embedding, sectioning and staining. […] Next, tissues were incubated for 1 hour in an immunostaining cocktail solution consisting of NucBlue (Thermo), specific marker probes (1:200 dilution) anti-CD31 (Cat#DIA-310, HistoBioTec) and anti-alphaSmoothMuscle actin-Cy3 (Sigma) in Dako staining buffer. For CD31, a goat anti-rat alexa-fluor647 secondary antibody was also used (1:400). After staining, samples were rinsed again with 1X PBS three times prior to slides being cover slipped with Pro-long anti-fade Gold (Thermo). […] For stain quantification, images were converted into 8-bit image files, a background threshold was determined using NIH ImageJ, and then all images were processed using an NIH ImageJ macro to quantify the area of positive stain. […]

Compound: CNC(=O)c1cc(Oc2ccc(NC(=O)Nc3ccc(Cl)c(C(F)(F)F)c3)cc2)ccn1 [crystalline sorafenib, sorafenib]
- difference in crystal size by brightfield microscopy [1]: no noticeable difference
- anti-tumor efficacy (tumor luminescence in ROIs) [2]: significant anti-tumor efficacy
- Cd68 and Cd11b expression levels (qPCR) [3]: no significant changes
- polymorph and crystal form of crystals recovered from vitreous fluid [4]: identical in polymorph and crystal form
- tumor aSMact levels (immunofluorescence) [5]: reduction is less significant
